Data: BindingDB's records for patent US20240400545 (Hangzhou Innogate Pharma, 2024)

Target: T1, Histone acetyltransferase KAT6A [507-778] (Homo sapiens, UniProt Q92794)
T1 construct: 507-778
Test: Inhibition of KAT6A Enzyme Activity Assay
Experimental: 1× experimental buffer (modified Tris buffer) was prepared, and the compounds were dissolved with 100% DMSO to form 10 mM reservoir solution and diluted according to a certain concentration gradient. The compounds were transferred to a 384-well plate using an automatic sampler Echo, and the final concentration of DMSO was 1%. 1× KAT6A enzyme (catalytic domain) solution was prepared. A mixed solution of [3H]-acetyl-CoA (PERKIN ELMER, Cat. No. NET290250UC) and the substrate peptide H3 (1-21) was prepared. 10 μL of the enzyme solution was transferred to the 384-well plate and incubated at room temperature for 15 minutes. 10 μL of the mixed solution of [3H]-acetyl-CoA and the substrate peptide H3 (1-21) were added to the plate to initiate the reaction. The plate was incubated at room temperature for 1 hour. 10 μL of the stop solution was added to terminate the reaction. 25 μL of the reaction solution was transferred to a Flashplate (Perkin Elmer, Cat. No. SMP410A001PK) and incubated at room temperature for 1 hour. The plate was read using Microbeta. The inhibition rate of the compounds was calculated using the formula of Excel: inhibition %=(Max-Signal)/(Max−Min)*100%. Where max is the value of the DMSO control, min is the value of the non-enzymatic control, and signal is the value of the well where the compound was tested.

T1 sequence (Q92794 507-778): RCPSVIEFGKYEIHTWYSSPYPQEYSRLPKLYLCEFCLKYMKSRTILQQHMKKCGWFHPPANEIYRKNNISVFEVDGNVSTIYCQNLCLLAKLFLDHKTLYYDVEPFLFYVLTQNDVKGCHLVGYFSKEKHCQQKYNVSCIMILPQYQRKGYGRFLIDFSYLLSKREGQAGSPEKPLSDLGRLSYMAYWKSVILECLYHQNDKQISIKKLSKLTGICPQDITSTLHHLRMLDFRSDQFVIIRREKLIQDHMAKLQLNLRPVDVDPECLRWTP

| Structure (SMILES) | IC50 [nM] |
| --- | --- |
| COc1ccc(N2CCN(C)CC2)cc1S(=O)(=O)Nc1noc2cc(Cn3cccn3)cc(OC)c12 [US20240400545, Compound 5] | < 200 |
| COc1ccc(N2CCOCC2)cc1S(=O)(=O)Nc1noc2cc(Cn3cccn3)cc(OC)c12 [US20240400545, Compound 6] | < 100 |
| COc1ccc(C#CC2CC2)cc1S(=O)(=O)NC(=O)c1cc2ccc(N(C)C)cc2o1 [US20240400545, Compound 8] | < 1000 |
| CC#Cc1ccc(OC)c(S(=O)(=O)Nc2noc3cc(Cn4cccn4)cc(OC)c23)c1 [US20240400545, Compound 13] | < 20 |
| COc1cc(C#Cc2cccnc2)cc(OC)c1S(=O)(=O)Nc1noc2cc(Cn3cccn3)cc(OC)c12 [US20240400545, Compound 19] | < 5 |
| COc1cc(C#CC2CN(C)C2)cc(OC)c1S(=O)(=O)Nc1noc2cc(Cn3cccn3)cc(OC)c12 [US20240400545, Compound 22] | < 20 |
| CC#Cc1cccc(OC)c1S(=O)(=O)Nc1noc2cc(Cn3cccn3)cc(OC)c12 [US20240400545, Compound 23] | < 20 |
| COc1cc(C#CC2CN(C)C2)ccc1S(=O)(=O)Nc1noc2cc(Cn3cccn3)cc(OC)c12 [US20240400545, Compound 24] | < 20 |

Other lines, results leading:

| IC50 [nM] | Structure (SMILES) |
| --- | --- |
| < 20 | C#Cc1ccc(OC)c(S(=O)(=O)Nc2noc3cc(Cn4cccn4)cc(OC)c23)c1 [US20240400545, Compound 3] |
| < 10 | COc1ccc(C#CC2CC2)cc1S(=O)(=O)Nc1noc2cc(Cn3cccn3)cc(OC)c12 [US20240400545, Compound 7] |
| < 10 | CC#Cc1cc(OC)c(S(=O)(=O)Nc2noc3cc(Cn4cccn4)cc(OC)c23)c(OC)c1 [US20240400545, Compound 9] |
| < 5 | COc1cc(C#CC2CC2)cc(OC)c1S(=O)(=O)Nc1noc2cc(Cn3cccn3)cc(OC)c12 [US20240400545, Compound 10] |
| < 10 | C#Cc1ccc(S(=O)(=O)Nc2noc3cc(Cn4cccn4)cc(OC)c23)c(OC)c1 [US20240400545, Compound 11] |
| < 10 | COc1cc(C#CC2CC2)ccc1S(=O)(=O)Nc1noc2cc(Cn3cccn3)cc(OC)c12 [US20240400545, Compound 12] |
| < 5 | COc1cc(C#CC2CC(F)(F)C2)cc(OC)c1S(=O)(=O)Nc1noc2cc(Cn3cccn3)cc(OC)c12 [US20240400545, Compound 15] |
| < 10 | CC#Cc1ccc(S(=O)(=O)Nc2noc3cc(Cn4cccn4)cc(OC)c23)c(OC)c1 [US20240400545, Compound 16] |
| < 10 | COc1cc(C#Cc2cccnc2)cc(O)c1S(=O)(=O)Nc1noc2cc(Cn3cccn3)cc(OC)c12 [US20240400545, Compound 19'] |
| < 5 | COc1cc(C#CC2CN(C(=O)OC(C)(C)C)C2)cc(OC)c1S(=O)(=O)Nc1noc2cc(Cn3cccn3)cc(OC)c12 [US20240400545, Compound 20] |
| < 10 | COc1cc(C#CC2CNC2)cc(OC)c1S(=O)(=O)Nc1noc2cc(Cn3cccn3)cc(OC)c12 [US20240400545, Compound 21] |
